Results published in patent US20090105250A1, “COMPOUNDS AND COMPOSITIONS AS PROTEIN KINASE INHIBITORS” (IRM LLC, priority 2005, published 2009).
pIC50: −log10 of the molar value. Values belong to the molecule of their own block, whether it stands above or below them.

How the values were obtained:
Format in all cases: cell-based
Flt-3 = biological target: T1, Flt-3 (Homo sapiens, UniProt P36888, cells depend on it, form not given); assay: FLT3 (Cellular Assay), Ba/F3-FLT3-ITD proliferation; settings: read-out: IC50 for Flt-3
T1 sequence (P36888 1-993): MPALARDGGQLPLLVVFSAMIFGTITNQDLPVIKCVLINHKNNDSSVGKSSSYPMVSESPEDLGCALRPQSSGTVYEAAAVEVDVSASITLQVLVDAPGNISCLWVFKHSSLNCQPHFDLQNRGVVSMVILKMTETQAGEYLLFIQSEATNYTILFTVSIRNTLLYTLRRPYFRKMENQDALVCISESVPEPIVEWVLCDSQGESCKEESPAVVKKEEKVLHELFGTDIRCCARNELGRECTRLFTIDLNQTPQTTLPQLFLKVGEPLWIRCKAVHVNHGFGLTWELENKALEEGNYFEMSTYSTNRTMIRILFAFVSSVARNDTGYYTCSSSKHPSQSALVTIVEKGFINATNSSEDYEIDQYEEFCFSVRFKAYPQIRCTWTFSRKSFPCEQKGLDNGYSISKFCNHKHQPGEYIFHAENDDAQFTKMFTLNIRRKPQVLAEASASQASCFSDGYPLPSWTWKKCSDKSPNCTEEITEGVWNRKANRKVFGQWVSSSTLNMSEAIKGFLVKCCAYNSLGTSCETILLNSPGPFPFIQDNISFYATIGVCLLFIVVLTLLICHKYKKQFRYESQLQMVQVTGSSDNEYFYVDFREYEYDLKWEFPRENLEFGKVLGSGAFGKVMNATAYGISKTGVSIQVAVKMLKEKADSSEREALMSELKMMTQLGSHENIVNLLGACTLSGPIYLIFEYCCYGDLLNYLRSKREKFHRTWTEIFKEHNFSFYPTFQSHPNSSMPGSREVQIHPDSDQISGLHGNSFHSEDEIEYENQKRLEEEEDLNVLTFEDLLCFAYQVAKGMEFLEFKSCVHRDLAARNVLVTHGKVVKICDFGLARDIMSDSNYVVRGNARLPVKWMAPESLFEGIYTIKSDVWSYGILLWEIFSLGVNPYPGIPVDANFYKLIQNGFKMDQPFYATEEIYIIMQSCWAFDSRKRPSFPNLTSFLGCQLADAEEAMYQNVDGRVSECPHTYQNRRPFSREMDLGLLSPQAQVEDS

wild type Bcr-abl = biological target: T2, wild type Bcr-abl (Homo sapiens, UniProt P00519); assay: Proliferation of Ba/F3 cells expressing wild type Bcr-abl
T2 construct: expressed in transfected cells; host or cells: Ba/F3 murine pro-B cells; the other entry of the earlier key: BCR (P11274, Breakpoint cluster region protein)
Procedure: The murine cell line used is the Ba/F3 murine pro-B cell line transformed with BCR-Abl cDNA (Ba/F3-p210). These cells are maintained in RPMI/10% fetal calf serum (RPMI/FCS) supplemented with penicillin 50 μg/mL, streptomycin 50 μg/mL and L-glutamine 200 mM. Untransformed Ba/F3 Ba/F3 cells are similarly maintained with the addition of murine recombinant IL3.
(§1) Ba/F3-p210 cells are plated into 96 well TC plates at a density of 15,000 cells per well. 50 μL of two fold serial dilutions of the test compound (Cmax, is […]) are added to each well (STI571 is included as a positive control). After incubating the cells for 48 hours at 37° C., 5% CO2, 15 μL of MTT (Promega) is added to each well and the cells are incubated for an additional 5 hours. The optical density at 570 nm is quantified spectrophotometrically and IC50 values, the concentration of compound required for 50% inhibition, determined from a dose response curve.
Compounds of the invention are tested for their antiproliferative effect on Ba/F3 cells expressing either wild type or the mutant forms of BCR-Abl (G250E, E255V, T315I, F317L, M351T) that confers resistance or diminished sensitivity to STI571. […] The IC50 values of the compounds lacking toxicity on the untransformed cells were determined from the dose response curves obtained as describe above.

G250E Bcr-abl = biological target: T3, G250E Bcr-abl (Homo sapiens, UniProt P00519, G250E); assay: Proliferation of Ba/F3 cells expressing mutant Bcr-abl G250E
T3 construct: expressed in transfected cells; host or cells: Ba/F3 murine pro-B cells; the other entry of the earlier key: BCR (P11274, Breakpoint cluster region protein)
Procedure: as §1
(§2) Compounds of the invention are tested for their antiproliferative effect on Ba/F3 cells expressing either wild type or the mutant forms of BCR-Abl (G250E, E255V, T315I, F317L, M351T) that confers resistance or diminished sensitivity to STI571. The antiproliferative effect of these compounds on the mutant-BCR-Abl expressing cells and on the non transformed cells were tested as described above. The IC50 values of the compounds lacking toxicity on the untransformed cells were determined from the dose response curves obtained as describe above.

E255V Bcr-abl = biological target: T4, E255V Bcr-abl (Homo sapiens, UniProt P00519, E255V); assay: Proliferation of Ba/F3 cells expressing mutant Bcr-abl E255V
T4 construct: expressed in transfected cells; host or cells: Ba/F3 murine pro-B cells; the other entry of the earlier key: BCR (P11274, Breakpoint cluster region protein)
T4 sequence (P00519 229-512 E255V limits assumed): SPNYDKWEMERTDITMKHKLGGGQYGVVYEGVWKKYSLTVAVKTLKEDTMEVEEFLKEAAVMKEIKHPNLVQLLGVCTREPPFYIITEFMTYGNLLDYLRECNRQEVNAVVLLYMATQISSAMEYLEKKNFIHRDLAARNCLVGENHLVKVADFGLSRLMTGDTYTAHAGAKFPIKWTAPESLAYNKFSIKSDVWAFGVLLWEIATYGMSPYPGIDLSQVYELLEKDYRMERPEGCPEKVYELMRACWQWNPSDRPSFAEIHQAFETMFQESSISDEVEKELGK
Procedure: as §1, §2

T315I Bcr-abl = biological target: T5, T315I Bcr-abl (Homo sapiens, UniProt P00519, T315I); assay: Proliferation of Ba/F3 cells expressing mutant Bcr-abl T315I
T5 construct: expressed in transfected cells; host or cells: Ba/F3 murine pro-B cells; the other entry of the earlier key: BCR (P11274, Breakpoint cluster region protein)
Procedure: as §1, §2

F317L Bcr-abl = biological target: T6, F317L Bcr-abl (Homo sapiens, UniProt P00519, F317L); assay: Proliferation of Ba/F3 cells expressing mutant Bcr-abl F317L
T6 construct: expressed in transfected cells; host or cells: Ba/F3 murine pro-B cells; the other entry of the earlier key: BCR (P11274, Breakpoint cluster region protein)
Procedure: as §1, §2

M351T Bcr-abl = biological target: T7, M351T Bcr-abl (Homo sapiens, UniProt P00519, M351T); assay: Proliferation of Ba/F3 cells expressing mutant Bcr-abl M351T
T7 construct: expressed in transfected cells; host or cells: Ba/F3 murine pro-B cells; the other entry of the earlier key: BCR (P11274, Breakpoint cluster region protein)
Procedure: as §1, §2

PDGFRβ = biological target: T8, PDGFRβ (Homo sapiens, UniProt P09619); assay: PDGFRβ (Cellular Assay), Ba/F3-Tel-PDGFRβ proliferation; settings: read-out: IC50 for PDGFRβ
T8 construct: fused on or other part: P41212 (Transcription factor ETV6)
T8 sequence (P09619 600-962 limits assumed, change not shown): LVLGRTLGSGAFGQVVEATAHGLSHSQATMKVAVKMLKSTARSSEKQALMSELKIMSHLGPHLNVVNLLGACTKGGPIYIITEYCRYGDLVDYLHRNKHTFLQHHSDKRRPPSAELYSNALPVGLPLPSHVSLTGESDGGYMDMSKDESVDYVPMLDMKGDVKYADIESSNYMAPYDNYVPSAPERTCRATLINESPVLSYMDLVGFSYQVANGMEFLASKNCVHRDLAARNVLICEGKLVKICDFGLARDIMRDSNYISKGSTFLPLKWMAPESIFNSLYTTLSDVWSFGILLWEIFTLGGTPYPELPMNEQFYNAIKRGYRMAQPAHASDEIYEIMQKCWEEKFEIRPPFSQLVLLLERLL

- GI50 (Flt-3): 41 nM
SMILES: Cc1cn(-c2cc(C(=O)Nc3ccc(C)c(NC(=O)c4cnc(NCCO)s4)c3)cc(C(F)(F)F)c2)cn1 [Compound 5, 2-(2-Hydroxy-ethylamino)-thiazole-5-carboxylic acid {2-methyl-5-[3-(4-methyl-imidazol-1-yl)-5-trifluoromethyl-benzoylamino]-phenyl}-amide]

- pIC50 (wild type Bcr-abl): 8.30
- pIC50 (G250E Bcr-abl): 5.64
- pIC50 (E255V Bcr-abl): 7.92
- pIC50 (T315I Bcr-abl): 5.90
- pIC50 (F317L Bcr-abl): 8.30
- pIC50 (M351T Bcr-abl): 8.30
SMILES: CCN1CCN(c2cc(Nc3ncc(C(=O)Nc4cc(NC(=O)c5cccc(C(F)(F)F)c5)ccc4C)s3)nc(C)n2)CC1 [Example 8, 2-[6-(4-ethyl-piperazin-1-yl)-2-methyl-pyrimidin-4-ylamino]-thiazole-5-carboxylic acid [2-methyl-5-(3-trifluoromethyl-benzoylamino)-phenyl]-amide]

- GI50 (PDGFRβ): 5 nM
SMILES: Cc1cn(-c2cc(C(=O)Nc3ccc(C)c(NC(=O)c4cnc(Nc5cc(N6CCOCC6)nc(C)n5)s4)c3)cc(C(F)(F)F)c2)cn1 [Example 28, 2-(2-methyl-6-morpholin-4-yl-pyrimidin-4-ylamino)-thiazole-5-carboxylic acid {2-methyl-5-[3-(4-methyl-imidazol-1-yl)-5-trifluoromethyl-benzoylamino]-phenyl}-amide]

- pIC50 (wild type Bcr-abl): 8.10
- pIC50 (T315I Bcr-abl): 6.24
SMILES: CCN1CCN(c2cc(Nc3ncc(C(=O)Nc4cc(NC(=O)c5cc(-n6cnc(C)c6)cc(C(F)(F)F)c5)ccc4C)s3)nc(C)n2)CC1 [Example 29, 2-[6-(4-ethyl-piperazin-1-yl)-2-methyl-pyrimidin-4-ylamino]-thiazole-5-carboxylic acid {2-methyl-5-[3-(4-methyl-imidazol-1-yl)-5-trifluoromethyl-benzoylamino]-phenyl}-amide]
